Assay results as given in patent EP1897937A1, “Method of culturing NPCs” (NeuroProgen GmbH Leipzig, priority 2006, dated 2008).

Columns and labels:
[1] = tested on: hmNPCs; assay: Protein content of cell extracts (Bradford method); format: cell-based; conditions: Homo sapiens, 336 h, 2 weeks of expansion, read-out: protein yield compared to untreated samples
Description: (§1) To determine long-term proliferation, hmNPCs were plated and expanded for 2 passages with or without addition of various agents (see below) to the custom expansion media containing the growth factors EGF and FGF2. Different fetal midbrain tissues were included in this study. At the end of the proliferation period, differentiation of hmNPCs was induced via replacement of expansion media with mitogen-free media containing 1% FCS, 5 µM forskoline (Sigma-Aldrich Chemie GmbH Munich, Germany), and 100 pg/ml IL-1β (Sigma). The differentiation and expansion media were supplemented with different drugs as appropriate. Prior to immunocytochemistry or protein extraction, hmNPCs were allowed to differentiate for 1 week. To determine short-term proliferation via Ki67 immunostaining, the cells were seeded into 24-well plates (70,000 cells/well) and left overnight to rest. P2 receptor agonists (ATP, UTP, ATP + UTP, ADP, ADPβS) were supplied daily for 5 consecutive days. Ki67/nestin double-positive cells were counted in 8 randomly selected fields of nucleotide-treated or untreated samples. For the assessment of MAPK phosphorylation the cells were kept free of mitogens for 2 d prior to addition of the MEK-inhibitor in expansion media. In addition, the MEK-inhibitor was added during the differentiation period 15 min before UTP administration.
In order to prepare protein extracts, hmNPCs were collected, washed with ice-cold PBS and lysed in buffer [10 mM HEPES-KOH (pH 7.9), 10 mM KCI, 1.5 mM MgCl2, 0.1% NP-40], supplemented with protease inhibitor cocktail (Roche). After a brief centrifugation at 4°C/10 000×g, protein concentrations and protein yield from extracts were determined using the Bradford method (Bio-Rad, Hercules, CA, USA). To preserve the phosphorylation state of proteins, extracts for the MAPK experiment were obtained using the PhosphoSafe™ extraction reagent containing phophatase inhibitors (Novagen). […] The chemiluminescence was quantified using the AIDA, two-dimensional densitometry software (Raytest lsotopenmeb, Straubenhardt, Germany). […]

[2] = tested on: ERK1/2; assay: ERK1/2 (MAPK) phosphorylation by Western blot; format: cell-based, human
Description: as §1
UTP, UDP, ATP, ADP, ADPβS and suramin were purchased from Sigma (Sigma-Aldrich Chemie GmbH Munich, Germany). UTP and UDP were applied at different concentrations (1 µM, 10 µM, 100 µM), ATP at 100 µM, ADP at 100 µM, and ADPβS at100 µM. During expansion of the cells, the nucleotides were renewed once a week with every media change, unless otherwise stated. They were applied once at the beginning of the differentiation period. The P2 receptor antagonist suramin (10 µM) was added to expansion media 30 min prior to addition of UTP (100 µM). The stock solution of the MEK1/2 inhibitor U0126 (Promega Corporation, Mannheim, Germany) was prepared in dimethyl sulfoxide (DMSO) at a concentration of 10 mM. The stock solution was then diluted in 0.1 M PBS to obtain a concentration of 1 mM. MEK inhibitor (final concentration 10 µM) was added to mitogen-free expansion media, 15 min before UTP treatment (1 µM) of hmNPCs.
In order to prepare protein extracts, hmNPCs were collected, washed with ice-cold PBS and lysed in buffer [10 mM HEPES-KOH (pH 7.9), 10 mM KCI, 1.5 mM MgCl2, 0.1% NP-40], supplemented with protease inhibitor cocktail (Roche). After a brief centrifugation at 4°C/10 000×g, protein concentrations and protein yield from extracts were determined using the Bradford method (Bio-Rad, Hercules, CA, USA). To preserve the phosphorylation state of proteins, extracts for the MAPK experiment were obtained using the PhosphoSafe™ extraction reagent containing phophatase inhibitors (Novagen). […] Membranes were blocked with 5% (wt/vol) nonfat dry milk in PBS-T (PBS, 0.1% (vol/vol) Tween 20) for 2 h at room temperature and subsequently incubated with the desired primary antibody (diluted in PBS containing 5% non-fat milk and 0.1% Tween 20) overnight at 4 °C with gentle agitation. The membrane was incubated with horseradish peroxidase-coupled secondary antibody for 1 h at room temperature. […] The chemiluminescence was quantified using the AIDA, two-dimensional densitometry software (Raytest lsotopenmeb, Straubenhardt, Germany).

O=c1ccn([C@@H]2O[C@H](COP(=O)(O)OP(=O)(O)OP(=O)(O)O)[C@@H](O)[C@H]2O)c(=O)[nH]1 [UTP, uridine 5'-triphosphate]
activity at 1 µM ([1]; 1 µM): 165% | activity at 10 µM ([1]; 10 µM): 125% | activity at 100 µM ([1]; 100 µM): 113% | ERK1/2 (MAPK) phosphorylation ([2]; 1 µM, 30 min, expansion media, mitogen-free): phosphorylated | expression of phosphorylated ERK1/2 ([2]; 100 µM, one week of differentiation): increased
